Data reported in ChEMBL document CHEMBL4706500, “Identification of dibucaine derivatives as novel potent enterovirus 2C helicase inhibitors: In vitro, in vivo, and combination therapy study” (Eur J Med Chem, 2020).
Activity calls are given as the source filed them. The rule behind the calls is not given here.

Tests used:
Enterovirus A71 [1] = assay: Antiviral activity against Enterovirus A71 infected in human RD cells assessed as inhibition of viral replication measured by CCK-8 assay; format: functional, organism-based; details: Enterovirus A
RD [2] = assay: Cytotoxicity against human RD cells infected with Enterovirus A71 assessed as reduction in cell viability measured by CCK-8 assay; format: functional
[3] = Selectivity index, ratio of CC50 for human RD cells infected with Enterovirus A71 to EC50 for Enterovirus A71 infected in human RD cells; format: toxicity, cell-based; details: read-out: Selectivity Index
Enterovirus A71 [4] = assay: Antiviral activity against Enterovirus A71 infected in human RD cells using HEX-labelled RNA as substrate assessed as inhibition of dsRNA unwinding by measuring accumulation of dsRNA at 0.56 uM treated 8 hpi by gel based flourescence assay; format: functional, organism-based
Enterovirus A71 [5] = assay: Antiviral activity against Enterovirus A71 infected in human RD cells assessed as inhibition of viral replication measured after 48 hrs by plaque assay; format: functional, organism-based
Enterovirus A71 [6] = assay: Antiviral activity against Enterovirus A71 infected in African green monkey vero cells assessed as down regulation of VP1 expression measured after 24 hrs by immunofluorescence assay; format: functional, organism-based
Enterovirus A71 [7] = assay: Antiviral activity against Enterovirus A71 infected in human RD cells assessed as inhibition of VP1 expression measured after 24 hrs by Western blot assay; format: functional, organism-based
Enterovirus A71 [8] = assay: Antiviral activity against Enterovirus A71 infected in human RD cells assessed as inhibition of 2C expression measured after 24 hrs by Western blot assay; format: functional, organism-based
Enterovirus A71 [9] = assay: Antiviral activity against Enterovirus A71 at early stage of life cycle infected in human RD cells assessed as VP1 expression at 3.2 uM treated 12 hpi measured upto 8 hrs by time of addition assay; format: functional, organism-based; details: time hrs <=8
Enterovirus A71 [10] = assay: Antiviral activity against Enterovirus A71 at early stage of life cycle infected in African green monkey Vero cells assessed as VP1 expression at 3.2 uM treated 12 hpi measured upto 8 hrs by time of addition assay; format: functional, organism-based; details: time hrs <=8
Enterovirus A71 [11] = assay: Antiviral activity against Enterovirus A71 infected in African green monkey Vero cells assessed as reduction in viral RNA titer levels at early stage of life cycle at 3.2 uM treated 12 hpi measured upto 8 hrs by time of addition assay; format: functional, organism-based; details: time hrs <=8
Enterovirus A71 [12] = assay: Antiviral activity against Enterovirus A71 infected in human RD cells using HEX-labelled RNA as substrate assessed as inhibition of dsRNA unwinding by measuring accumulation of dsRNA at 4.95 uM treated 8 hpi by gel based flourescence assay; format: functional, organism-based
Enterovirus A71 [13] = assay: Antiviral activity against Enterovirus A71 infected in human RD cells using HEX-labelled RNA as substrate assessed as increase in accumulation of 2C at 4.95 uM measured after 8hpi by gel based flourescence assay; format: functional, organism-based
RD [14] = assay: Inhibition of 2C ATPase helicase activity in Enterovirus A71 infected in human RD cells measured by gel electrophoresis method; format: cell-based
Enterovirus A71 [15] = assay: Antiviral activity against EV-A71 GZ-C11 infected in KM mouse assessed as improvement in survival rate administered 4 mg/kg, po bid for 4 days starting 6 hrs post infection measured on day 14 (reference value: 30%); format: functional; details: Enterovirus A, 96 h, time 4 day
Enterovirus A71 [16] = assay: Antiviral activity against EV-A71 GZ-C11 infected in KM mouse assessed as improvement in survival rate administered 6 mg/kg, po bid for 4 days starting 6 hrs post infection measured on day 14 (reference value: 30%); format: functional; details: Enterovirus A, 96 h, time 4 day
Enterovirus A71 [17] = assay: Antiviral activity against EV-A71 GZ-C11 infected in KM mouse assessed as decrease in viral infection clinical symptoms administered 6 mg/kg, po bid for 4 days treatment started 6 hrs post infection measured on day 14 relative to control; format: functional, organism-based; details: time 14.0 day
[18] = Toxicity in 14 day suckling KM mouse assessed as changes in weight growth at 6 mg/kg, po bid for 4 successive days measured on day 12 relative to control; format: organism-based; details: in vivo, 288 h, time 12 day
Enterovirus A71 [19] = assay: Antiviral activity against EV-A71 GZ-C11 infected in KM mouse assessed as prevention of death administered in presence of emetine at 6 mg/kg, po; format: functional, organism-based

| Compound | EC50 (Enterovirus A71 [1]) [µM] | CC50 (RD [2]) [µM] | selectivity ratio [3] | further results |
| --- | --- | --- | --- | --- |
| CCN(CC)CCNC(=O)c1cc(OC)nc2ccccc12 | 27.7 | > 111 | > 4 | – |
| CCCCOc1cc(C(=O)NCCCN(CC)CC)c2ccccc2n1 | 100 | – | 64 | – |
| CCCOc1cc(C(=O)NCCN(C)C)c2ccccc2n1 | 1.58 | > 111 | > 70 | – |
| CCCCCOc1cc(C(=O)NCCN(C)C)c2ccccc2n1 | 1.58 | 75.9 | 48 | – |
| CCCCCOc1cc(C(=O)NCCN(CC)CC)c2ccccc2n1 | 5.83 | 35 | 6 | – |
| CCCCOc1cc(C(=O)NCCCN(C)C)c2ccccc2n1 | 100 | – | – | – |
| CCCCOc1cc(C(=O)NCCN2CCCC2)c2ccccc2n1 | 1.53 | > 97.7 | > 64.1 | – |
| CCCOc1cc(C(=O)NCC(C)C)c2ccccc2n1 | 58.2 | 87.3 | 1.5 | – |
| CCCOc1cc(C(=O)NCCN(CC)CC)c2ccccc2n1 | 2.37 | > 101 | > 42.7 | – |
| CCOc1cc(C(=O)NCC(C)C)c2ccccc2n1 | > 100 | – | – | – |
| CCCCOc1cc(C(=O)NCCN2CCCCC2)c2ccccc2n1 | 1.47 | 93.8 | – | – |
| CC(C)CNC(=O)c1cc(OC(C)C)nc2ccccc12 | 58.2 | > 116 | > 2 | – |
| CCCCCCOc1cc(C(=O)NCCN(CC)CC)c2ccccc2n1 | 4.21 | 33.6 | 8 | – |
| CCOc1cc(C(=O)NCCN(CC)CC)c2ccccc2n1 | 2.48 | > 106 | > 42.7 | – |
| CCCCCCOc1cc(C(=O)NCCN(C)C)c2ccccc2n1 | 2.27 | 36.4 | 16 | – |
| CCOc1cc(C(=O)NCCN(C)C)c2ccccc2n1 | 3.62 | 116 | 31.9 | – |
| CCCCOc1cc(C(=O)NCCN(CC)CC)c2ccccc2n1 [DIBUCAINE] | 2.27 | > 97 | > 42.7 | – |
| CC(C)S(=O)(=O)n1c(N)nc2ccc(/C(=N/O)c3ccccc3)cc21 [ENVIROXIME] | 0.14 | 28 | 200 | Activity (Enterovirus A71 [4]): inactive |
| CCCCOc1cc(C(=O)NCCN(C)C)c2ccccc2n1 | 1.24 | 106 | 85.4 | Activity (Enterovirus A71 [5]): Active; Activity (Enterovirus A71 [6]): Active; Activity (Enterovirus A71 [7]): Active; Activity (Enterovirus A71 [8]): Active; Activity (Enterovirus A71 [9]): Active; Activity (Enterovirus A71 [10]): Active; Activity (Enterovirus A71 [11]): Active; Activity (Enterovirus A71 [12]): Active; Activity (Enterovirus A71 [13]): Active; inhibition (RD [14]): Active; survival at 4 mg/kg (Enterovirus A71 [15]): 30%; survival at 6 mg/kg (Enterovirus A71 [16]): 67%; Activity (Enterovirus A71 [17]): Active; Activity [18]: Non-Toxic; Activity (Enterovirus A71 [19]): Active |
| CCCNC(=O)c1cc(OCC)nc2ccccc12 | 2.02 | > 70.2 | > 34.8 | – |
| CCCNC(=O)c1cc(OCCC)nc2ccccc12 | > 100 | – | – | – |
